Measured values taken from patent US8871787B2, “Stable crystalline salt of (R)-3-fluorophenyl-3,4,5-trifluorobenzylcarbamic acid 1-azabicyclo [2.2.2]oct-3-yl ester” (Laboratorios Salvat, S.A., priority 2007, dated 2014).

Columns and labels:
[1] = Salt screening of compound I with several acids (aspect of the salt); format: physicochemical; conditions: free base and acid in hot ethanol, cooled, solvent evaporated
Description: To select the most suitable salt of compound I and minimize the undesirable hygroscopic properties of the hydrochloride, several acids were tested. The free base of compound I was dissolved in hot ethanol, and then acid solution in hot ethanol was added. The mixture was then stirred and heated for 30 min. After cooling to room temperature, the solvent was removed by evaporation. […]

[2] = Equilibrium solubility of the D-tartrate salt in several solvents at 25° C.; format: physicochemical; conditions: for solubility: thermodynamic from solid, 25° C., measured as the free base
[3] = system: healthy postmenopausal females; test: Phase I clinical trial: tolerability and preliminary efficacy, voiding diary; format: in vivo, human
Description: A clinical trial was performed to evaluate the tolerability and preliminary efficacy of tarafenacin tartrate in healthy postmenopausal females.
Twelve subjects from 50 to 70 years old were randomized to receive tarafenacin tartrate 0.125 mg, 0.4 mg or placebo o.d. for 17 days. Subjects filled a diary to record time and volume of each void. A descriptive analysis was performed.

[4] = system: patients suffering from Overactive Bladder syndrome; test: Phase II clinical trial: pharmacodynamics in overactive bladder patients (urodynamic assessments, tolerability); conditions: 4 weeks
Description: A pharmacodynamic study of tarafenacin tartrate in patients suffering from Overactive Bladder syndrome was performed to obtain first efficacy and tolerability data in this population.
The study was randomised, double-blind, placebo and active-controlled. Patients received tarafenacin tartrate at the dose of 0.1 or 0.2 mg, tolterodine 4 mg or placebo o.d. during 4 weeks, just after a 2 week single-blind wash-out period in which all patients received placebo. Urodynamic assessments were performed at baseline and after 4 weeks administration.
It was planned to screen approximately 100 patients and randomize 77 patients, to obtain outcome data on 63 patients. Patients who entered the study were randomized into the four treatment groups during the double blind treatment period.
After a Screening visit and a 14 day washout single blind period (placebo run in), patients were randomized to one of the four treatment arms by a 2:2:2:1 randomization schedule. In a single blind period, only the patients were blinded. During the treatment period, each patient received tarafenacin tartrate 0.1 mg/tarafenacin tartrate 0.2 mg/tolterodine (ER) 4 mg/placebo. Identical capsules were used to maintain the study blind.
The end of study procedures were performed at the Day 28 visit (End of Treatment [EOT]). A study follow up was conducted at Day 35 either telephonically or the patient was called to the clinic (End of Study [EOS]).
The primary endpoint was the pharmacodynamic endpoints and they were assessed as the mean change from baseline to Day 28 in urodynamic, salivary flow, and accommodation near point pharmacodynamic assessments.

[5] = 0.1 mg o.d., change from baseline to Day 28

## O=C(O)C(O)C(O)C(=O)O.O=C(O[C@H]1CN2CCC1CC2)N(Cc1cc(F)c(F)c(F)c1)c1cccc(F)c1 [D-tartrate salt, D-tartrate salt of (R)-3-fluorophenyl-3,4,5-trifluorobenzylcarbamic acid 1-azabicyclo[2.2.2]oct-3-yl ester]
[1]; listed as D-Tartaric
  Aspect of the salt: White solid crystal precipitated in EtOH.
[1]; listed as salt obtained with D-tartaric acid
  Aspect of the salt: non-hygroscopic solid crystal
[2]; aqueous buffer, 0.1N sodium hydroxide
  solubility: 90 µg/mL
[2]; crystalline form, water
  solubility in water (in words): highly soluble in water
[2]; organic solvent or mixture, Dichloromethane
  solubility: 2200 µg/mL
[2]; organic solvent or mixture, Ethanol
  solubility: 10000 µg/mL
[2]; organic solvent or mixture, Hexane
  solubility: 300 µg/mL
[2]; organic solvent or mixture, Isopropyl alcohol
  solubility: 1500 µg/mL
[2]; organic solvent or mixture, Methanol
  solubility: 258000 µg/mL
[2]; organic solvent or mixture, n-Octanol
  solubility: 500 µg/mL
[2]; simulated gastric fluid, 0.1 Hydrochloric acid
  solubility: 367000 µg/mL
[2]; Water
  solubility: 251000 µg/mL
[3]; 0.125 mg and 0.4 mg o.d. for 17 days
  effect on the volume of urine per void (in words): A dose-relationship was observed
[3]; 0.125 mg group, day 0
  number of voids per day: 7.6 times per day
[3]; 0.125 mg group, day 17
  number of voids per day: 6.8 times per day
[3]; 0.125 mg o.d., from day 10 until day 17 (steady state)
  volume per void: 450 to 550 mL
[3]; 0.4 mg group, day 0
  number of voids per day: 8 times per day
[3]; 0.4 mg group, day 17
  number of voids per day: 6.4 times per day
[3]; 0.4 mg o.d., from day 2 until the end of the study
  mean volumes per void: 550 to 650 mL
[4]; 0.1 mg o.d.
  incidence of treatment emergent adverse events: 25%
[4]; [5]
  increase in infused volume: 73 mL
  increase in volume at first desire to void: 60 mL
  increase in volume at strong desire to void: 71 mL
[4]; 0.1 mg versus 0.2 mg o.d.
  dose-response relationship (in words): no dose-response relationship
[4]; 0.2 mg o.d.
  incidence of treatment emergent adverse events: 33%
[4]; OAB patients
  tolerability (in words): well tolerated
[4]; OAB patients, listed as Tarafenacin tartrate
  pharmacological activity (in words): good pharmacological activity
[4]; OAB patients, listed as tarafenacin tartrate
  pharmacological activity (in words): higher pharmacological activity
